Assay [1] concerns MIA PaCa-2 AbR (paclitaxel resistant) cells. Nature of the assay: Nab-paclitaxel dose response with fixed FASN inhibitor, CellTiter-Glo viability, MIA PaCa-2 AbR. The following applies: for 3-Day IC50 Ratio + Compound 5 / 7-Day IC50 Ratio + Compound 5: MIA PaCa-2 AbR.
Experimental: (§1) For drug treatment, MIA PaCa-2 or BxPC-3 cells were plated in %-well plates in RPMI medium plus 10% FBS. Parental (paclitaxel sensitive) or AbR (paclitaxel resistant) variants of the MIA PaCa-2 or BxPC-3 cell lines were used. […] Serial dilutions of Nab-paclitaxel were prepared in DMSO and further diluted 1:10 in RPMI medium for addition to the assay solution. RPMI-diluted compounds were added to each well 24-hours after cell plating. Assays were done in triplicate for each drug concentration, with cell viability measured at 3 or 7 days after compound addition. The number of viable cells was measured using the CellTiter-Glo assay (Promega) according to the manufactures instructions. Luminosity per well was determined and the signal intensity was analyzed versus drug concentration. For each FASN inhibitor, the concentration of drug resulting in 50% inhibition of the maximum signal was determined, and this value was reported as the IC50.
Assay [2] concerns BxPC3 Parental (paclitaxel sensitive) cells. The assay is described as follows: Nab-paclitaxel dose response with fixed FASN inhibitor, CellTiter-Glo viability, BxPC3 Parental.
Experimental: as §1
In assay [3] the test system is BxPC3 AbR (paclitaxel resistant) cells. Nature of the assay: Nab-paclitaxel dose response with fixed FASN inhibitor, CellTiter-Glo viability, BxPC3 AbR. The conditions noted are these: for 3-Day IC50 Ratio + Compound 5 / 7-Day IC50 Ratio + Compound 5: BxPC3 AbR.
Experimental: as §1
Assay [4] concerns MIA PaCa-2 Parental (paclitaxel sensitive) cells. Nature of the assay: Nab-paclitaxel dose response with fixed FASN inhibitor, CellTiter-Glo viability, MIA PaCa-2 Parental.
Experimental: as §1

Each structure is given as a SMILES string. “And” between values parts separate entries of the source, which are not always exact repeats. Equal values may be shown once.

Take `Cc1cc(C)c(-c2[nH]c(C3COC3)nc2C)cc1C(=O)N1CC(c2ccc(C#N)cc2)C1` [Compound 5]: the “3-Day IC50 Ratio + Compound 5” value in assay [1] (+ Compound 5 0.2 μM) was found to be 1.46; in assay [1] (+ Compound 5 2.0 μM), 2.73; in assay [2] (+ Compound 5 0.2 μM), 0.92; in assay [2] (+ Compound 5 2.0 μM), 0.63; in assay [3] (+ Compound 5 0.2 μM), 1.46; in assay [3] (+ Compound 5 2.0 μM) it was 5.57. For the same molecule, the “3-Day IC50 Ratio + Compound 5” value in assay [4] (+ Compound 5 0.2 μM) came out at 1.18; in assay [4] (+ Compound 5 2.0 μM) it was 1.59. In addition, the “7-Day IC50 Ratio + Compound 5” value in assay [1] (+ Compound 5 0.2 μM) was found to be 1.04; in assay [1] (+ Compound 5 2.0 μM), 3.37; in assay [2] (+ Compound 5 0.2 μM), 0.61; in assay [2] (+ Compound 5 2.0 μM) it was 0.63; in assay [3] (+ Compound 5 0.2 μM), 1.29; in assay [3] (+ Compound 5 2.0 μM) it was 3.98. The “7-Day IC50 Ratio + Compound 5” value in assay [4] (+ Compound 5 0.2 μM) is 1.09; in assay [4] (+ Compound 5 2.0 μM), 1.88. In addition, the “shift of the MIA PaCa-2 Nab-paclitaxel IC50 value” in assay [1] (MIA PaCa-2 paclitaxel resistant (AbR), Compound 5, 3 and 7 days (Table 2)) was 2.7 fold and 3.4 fold. For the same molecule, in assay [3] (BxPC-3 paclitaxel resistant (AbR), Compound 5, 3 and 7 days (Table 2)), the “shift of the BxPC-3 Nab-paclitaxel IC50 value” was 4.0 fold and 5.6 fold.

The values above are taken from patent publication US10363249B2, “Fatty acid synthase inhibitor for use in the treatment of drug resistant cancer” (3-V Biosciences, Inc., priority 2014, dated 2019).
